Measurements: publication PMC4121618 (Molecular Pain, 2014)
Like-named read-outs stand apart in the source and are kept apart here.

Columns and labels:
animals = details: ref [14]; cited from earlier work
MOP receptor [1] = tested on: MOP receptor; parameters: method as in PMID 15857143; details: ref [13]; cited from earlier work
MOP receptor [2] = biological target: T1, MOP receptor (Rattus norvegicus, UniProt P33535); test: Radioligand binding assay, MOP receptor, rat brain membranes ([3H]DAMGO)
T1 construct: from tissue; host or cells: Sprague-Dawley rat brain membranes

human MOP receptors [3] = biological target: T2, human MOP receptors (Homo sapiens, UniProt P35372); test: [35S]GTPγS functional assay in CHOhMOP cell membranes; assay type: biochemical; parameters: expressed in transfected cells; host or cells: CHO cells; details: for Emax: read-out: [35S]GTPγS functional assay Emax
mice [4] = test: PPQ abdominal stretching test; assay type: in vivo; details: for ED50: Mus musculus, sc, PPQ abdominal stretching test, read-out: ED50 (95% CL) PPQ; for Times more active than oxycodone (antinociceptive potency): maximum over hot-plate, tail-flick and PPQ assays
DOP receptor [5] = biological target: T3, DOP receptor (Rattus norvegicus, UniProt P33533); test: Radioligand binding assay, DOP receptor, rat brain membranes ([3H][Ile5,6]deltorphin II); details: for Selectivity ratio DOP/MOP: Ki ratio, rat brain membranes
T3 construct: from tissue; host or cells: Sprague-Dawley rat brain membranes

mice [6] = test: Hot-plate test; assay type: in vivo; details: s.c.; for ED50: Mus musculus, sc, 0.5 h, hot-plate test, 30 min after dosing, read-out: ED50 (95% CL) HP
mice [7] = test: Tail-flick test; assay type: in vivo; details: s.c.; for ED50: Mus musculus, sc, 20 min, tail-flick test, 20 min after dosing, read-out: ED50 (95% CL) TF
KOP receptor [8] = biological target: T4, KOP receptor (Rattus norvegicus, UniProt P34975); test: Radioligand binding assay, KOP receptor, rat brain membranes ([3H]U69,593); details: for Selectivity ratio KOP/MOP: Ki ratio, rat brain membranes
T4 construct: from tissue; host or cells: Sprague-Dawley rat brain membranes

human MOP receptors [9] = biological target: T2, human MOP receptors; test: Calcium mobilization assay in CHOhMOP cells expressing Gαqi5; assay type: cell-based; parameters: expressed in transfected cells; host or cells: CHO cells stably co-expressing Gαqi5; details: for Emax: read-out: Calcium mobilization assay Emax
mice [10] = tested on: mice; parameters: method as in PMID 16033285; details: s.c., hot-plate test, ref [30]; cited from earlier work
mice [11] = tested on: mice; parameters: method as in PMID 16033285; details: s.c., PPQ abdominal stretching test, ref [30]; cited from earlier work
human MOP receptor = tested on: human MOP receptor; parameters: method as in PMID 22002663; details: HEK293 cells co-expressing human MOP receptor and Gαqi3, ref [37], cited from earlier work
[12] = tested on: human MOP receptor in CHO cells; parameters: method as in PMID 14600248; details: CHOhMOP, Thompson et al.; ref [35]; read-out: [35S]GTPγS binding EC50; cited from earlier work
mice [13] = tested on: mice; parameters: method as in PMID 16033285; details: s.c., tail-flick test, ref [30]; cited from earlier work
[14] = tested on: C6rMOP cells (rat MOP receptor); parameters: method as in PMID 16291875; details: ref [36], read-out: Potency EC50; cited from earlier work
DOP receptor [15] = biological target: T3, DOP receptor; details: cited from earlier work; for Ki: read-out: Ki DOP
KOP receptor [16] = biological target: T4, KOP receptor; details: cited from earlier work; for Ki: read-out: Ki KOP
MOP receptor [17] = biological target: T1, MOP receptor; details: read-out: Ki MOP; cited from earlier work
[18] = biological target: T5, recombinant rat MOP receptor expressed in C6 glioma cells (Rattus norvegicus, UniProt P33535); test: Binding assay in C6rMOP cell membranes ([3H]diprenorphine)
T5 construct: expressed in transfected cells

[19] = biological target: T6, human KOP receptors (CHOhKOP) (Homo sapiens, UniProt P41145); test: Binding assay in CHOhKOP cell membranes ([3H]diprenorphine)
T6 construct: expressed in transfected cells

[20] = biological target: T7, rat DOP receptors (C6rDOP) (Rattus norvegicus, UniProt P33533); test: Binding assay in C6rDOP cell membranes ([3H]diprenorphine)
T7 construct: expressed in transfected cells

[21] = absolute stimulation, set as 100%

T3 sequence (P33533 whole entry): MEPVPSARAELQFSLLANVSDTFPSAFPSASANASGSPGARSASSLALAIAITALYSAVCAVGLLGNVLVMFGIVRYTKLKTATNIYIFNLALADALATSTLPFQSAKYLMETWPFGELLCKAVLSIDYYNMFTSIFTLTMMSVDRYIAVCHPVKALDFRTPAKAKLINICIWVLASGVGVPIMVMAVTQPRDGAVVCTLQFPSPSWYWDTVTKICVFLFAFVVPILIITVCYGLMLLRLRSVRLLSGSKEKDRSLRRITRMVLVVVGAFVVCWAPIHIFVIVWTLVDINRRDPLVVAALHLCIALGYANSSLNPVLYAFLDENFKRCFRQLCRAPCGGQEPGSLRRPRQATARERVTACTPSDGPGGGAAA
T4 sequence (P34975 whole entry): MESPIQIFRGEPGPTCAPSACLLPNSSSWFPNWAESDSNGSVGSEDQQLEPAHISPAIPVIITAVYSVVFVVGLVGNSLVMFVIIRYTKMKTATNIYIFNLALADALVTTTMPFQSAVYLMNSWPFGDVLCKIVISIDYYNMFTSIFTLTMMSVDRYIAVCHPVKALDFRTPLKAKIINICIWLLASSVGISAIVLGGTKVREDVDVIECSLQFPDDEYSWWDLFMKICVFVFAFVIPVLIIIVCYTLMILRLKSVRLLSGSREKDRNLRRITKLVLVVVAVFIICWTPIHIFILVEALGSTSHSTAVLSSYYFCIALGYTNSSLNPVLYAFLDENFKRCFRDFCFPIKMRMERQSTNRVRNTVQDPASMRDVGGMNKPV
T1 sequence (P33535 whole entry): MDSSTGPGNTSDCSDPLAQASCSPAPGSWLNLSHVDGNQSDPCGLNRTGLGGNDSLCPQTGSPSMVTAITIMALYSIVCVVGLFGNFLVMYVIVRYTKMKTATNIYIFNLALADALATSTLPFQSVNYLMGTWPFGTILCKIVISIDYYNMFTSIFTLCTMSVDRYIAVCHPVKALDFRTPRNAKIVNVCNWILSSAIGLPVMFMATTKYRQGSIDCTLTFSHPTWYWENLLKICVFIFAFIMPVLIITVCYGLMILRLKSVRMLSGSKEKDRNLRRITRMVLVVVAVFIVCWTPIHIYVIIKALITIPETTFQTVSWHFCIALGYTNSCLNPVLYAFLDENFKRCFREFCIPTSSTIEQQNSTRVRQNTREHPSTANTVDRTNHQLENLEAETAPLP
T2 sequence (P35372 whole entry): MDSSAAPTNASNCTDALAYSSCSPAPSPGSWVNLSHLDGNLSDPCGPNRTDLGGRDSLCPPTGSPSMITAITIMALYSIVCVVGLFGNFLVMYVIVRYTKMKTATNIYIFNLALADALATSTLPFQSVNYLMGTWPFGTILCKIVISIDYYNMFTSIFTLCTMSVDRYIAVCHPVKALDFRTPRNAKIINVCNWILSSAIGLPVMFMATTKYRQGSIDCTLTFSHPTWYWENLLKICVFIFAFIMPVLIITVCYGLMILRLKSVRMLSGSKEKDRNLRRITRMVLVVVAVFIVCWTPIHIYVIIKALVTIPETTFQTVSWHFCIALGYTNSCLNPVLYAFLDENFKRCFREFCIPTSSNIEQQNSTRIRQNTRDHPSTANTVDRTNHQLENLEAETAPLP
T7 sequence (P33533 whole entry): as the sequence (P33533 whole entry) above
T6 sequence (P41145 whole entry): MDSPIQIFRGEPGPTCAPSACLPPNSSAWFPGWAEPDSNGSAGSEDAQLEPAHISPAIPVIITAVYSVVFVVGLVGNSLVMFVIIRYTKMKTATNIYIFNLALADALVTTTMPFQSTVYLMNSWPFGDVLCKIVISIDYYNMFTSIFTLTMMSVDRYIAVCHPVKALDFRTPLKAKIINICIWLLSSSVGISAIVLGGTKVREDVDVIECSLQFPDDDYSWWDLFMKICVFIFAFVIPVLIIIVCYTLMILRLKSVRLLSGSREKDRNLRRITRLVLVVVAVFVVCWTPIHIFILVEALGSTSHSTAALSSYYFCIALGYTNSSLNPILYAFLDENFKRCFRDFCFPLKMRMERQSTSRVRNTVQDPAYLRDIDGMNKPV
T5 sequence (P33535 whole entry): as the sequence (P33535 whole entry) above

| SMILES | Ki (MOP receptor [2]) [nM] | EC50 (human MOP receptors [3]) [nM] | Emax (human MOP receptors [3]) [%] | ED50 (mice [4]) [mg/kg] | Ki (DOP receptor [5]) [nM] | Selectivity ratio DOP/MOP (DOP receptor [5]) | ED50 (mice [6]) [mg/kg] | ED50 (mice [7]) [mg/kg] | Ki (KOP receptor [8]) [nM] | Selectivity ratio KOP/MOP (KOP receptor [8]) | EC50 (human MOP receptors [9]) [nM] | Emax (human MOP receptors [9]) [%] | ED50 (95% CL) HP (mice [10]) | ED50 (95% CL) PPQ (mice [11]) | ED50 (95% CL) TF (mice [13]) | Ki (DOP receptor [15]) [nM] | Ki (KOP receptor [16]) [nM] | Times greater potency than oxycodone and 14-OMC, calcium mobilization (human MOP receptors [9]; CHOhMOP Gαqi5 cells) | further results |
| --- | --- | --- | --- | --- | --- | --- | --- | --- | --- | --- | --- | --- | --- | --- | --- | --- | --- | --- | --- |
| COC12CCC(=O)C3Oc4c(O)ccc5c4C31CCN(C)C2C5 (stereo not shown) [14-O-methyloxymorphone] | – | – | – | – | – | – | – | – | – | – | – | – | – | – | – | – | – | – | Times more potent in inducing an antinociceptive effect than oxymorphone (animals): up to 40 times; Times increased binding affinity at the MOP receptor vs oxymorphone (MOP receptor [1]): 9 times |
| COc1ccc2c3c1O[C@H]1C(=O)CC[C@@]4(OC)[C@@H](C2)N(C)CC[C@]314 [14-OMC, 14-O-methyloxycodone, reference compound] | 35.3 ± 2.1 | 325 ± 94 | 137 ± 55 | 0.22 | 116 ± 15 | 3 | 1.02 | 0.8 | 454 ± 6 | 13 | 973 ± 204 | 72 ± 7 | – | – | – | – | – | – | – |
| C[C@@H](NC(=O)[C@@H](N)Cc1ccc(O)cc1)C(=O)NCC(=O)N(C)[C@@H](Cc1ccccc1)C(=O)NCCO [DAMGO, [D-Ala^2,Me-Phe^4,Gly-ol^5]enkephalin, reference compound] | – | – | – | – | – | – | – | – | – | – | – | – | – | – | – | – | – | – | Maximal DAMGO stimulation in [35S]GTPγS functional assay (human MOP receptors [3]; [21]): 225 ± 32%; Maximal DAMGO stimulation in calcium mobilization assay (human MOP receptors [9]; [21]): 217 ± 21% |
| COc1ccc2c3c1O[C@H]1C(=O)CC[C@@]4(O)[C@@H](C2)N(C)CC[C@]314 [Oxycodone, oxycodone, reference compound] | – | – | 92 ± 9 | – | – | – | – | – | – | – | – | 38 ± 3 | 1.37 (0.48-3.92) mg/kg, s.c. | 0.38 (0.19-0.75) mg/kg, s.c. | 0.94 (0.40-2.30) mg/kg, s.c. | – | – | – | Efficacy, changes in intracellular calcium levels (human MOP receptor): 100%; EC50 (human MOP receptor; read-out: Potency, changes in intracellular calcium levels): 1740 nM; EC50 [12]: 1400 nM; EC50 [14]: 373 nM |
| COc1ccc2c(c1O)C13C=C(C#N)CCC1(O)C(C2)N(C)CC3 (stereo not shown) [compound 1] | – | 273 ± 24 | 98 ± 4 | – | – | – | – | – | – | – | 957 ± 233 | 57 ± 4 | 0.50 (0.12-2.02) mg/kg, s.c. | 0.18 (0.076-0.42) mg/kg, s.c. | 1.88 (1.25-2.83) mg/kg, s.c. | 498 ± 79 | 1650 | up to 10 times | – |
| COc1ccc2c(c1OC)C13C=C(C#N)CCC1(O)C(C2)N(C)CC3 (stereo not shown) [compound 2] | – | 42.5 ± 14.9 | 97 ± 15 | – | – | – | – | – | – | – | 116 ± 9 | 69 ± 7 | 0.15 (0.054-0.41) mg/kg, s.c. | 0.026 (0.012-0.055) mg/kg, s.c. | 0.12 (0.061-0.23) mg/kg, s.c. | 107 ± 5 | 364 ± 7 | up to 10 times | Selectivity ratio DOP/MOP (DOP receptor [15]): 44; Selectivity ratio KOP/MOP (KOP receptor [16]): 149; Ki (MOP receptor [17]): 2.44 ± 0.13 nM |
| COc1ccc2c(c1O)C13C=C(C#N)CCC1(OC)C(C2)N(C)CC3 (stereo not shown) [compound 3] | – | 26.2 ± 1.7 | 85 ± 3 | – | – | – | – | – | – | – | 140 ± 21 | 61 ± 6 | 0.25 (0.11-0.59) mg/kg, s.c. | 0.11 (0.072-0.16) mg/kg, s.c. | 0.21 (0.11-0.40) mg/kg, s.c. | 197 ± 29 | 378 ± 155 | up to 10 times | Selectivity ratio DOP/MOP (DOP receptor [15]): 37; Selectivity ratio KOP/MOP (KOP receptor [16]): 70; Ki (MOP receptor [17]): 5.38 ± 0.42 nM |
| COc1ccc2c(c1OC)C13C=C(C(N)=O)CCC1(OC)C(C2)N(C)CC3 (stereo not shown) [compound 4] | 1.61 ± 0.05 | 25.6 ± 9.5 | 107 ± 26 | 0.18 | 28.8 ± 2.3 | 18 | 1.3 | 1.34 | 105 ± 45 | 65 | 56.1 ± 11.3 | 59 ± 8 | – | – | – | – | – | – | Times less active than compound 1, hot-plate (mice [6]): about 3 times |
| COc1ccc2c(c1OC)C13C=C(C#N)C=CC1(OC)C(C2)N(C)CC3 (stereo not shown) [compound 5] | 0.54 ± 0.04 | 1.64 ± 0.19 | 133 ± 7 | 0.0023 | 30.3 ± 2.9 | 56 | 0.08 | 0.04 | 200 ± 40 | 370 | 21.7 ± 5.5 | 70 ± 8 | – | – | – | – | – | – | Ki [18]: 0.7 nM; Ki [19]: 229 nM; MOP selectivity vs. KOP ([19]; recombinant receptors, CHOhKOP vs C6rMOP): 327 times; Times more active than oxycodone (antinociceptive potency) (mice [4]; s.c.): up to 165 times; Ki [20]: 56 nM; MOP selectivity vs. DOP ([20]; recombinant receptors, C6rDOP vs C6rMOP): 80 times; Times more potent than DAMGO, calcium mobilization (human MOP receptors [9]; CHOhMOP Gαqi5 cells): about 2 times |
| COc1ccc2c3c1OC1C(C#N)=CCC4(OC)C(C2)N(C)CCC314 (stereo not shown) [compound 6] | 7.39 ± 0.34 | 25.1 ± 3.6 | 121 ± 27 | 0.003 | 239 ± 40 | 32 | 0.089 | 0.12 | 194 ± 68 | 26 | 173 ± 21 | 84 ± 10 | – | – | – | – | – | up to 10 times | Increase in binding to the MOP receptor vs 6-keto counterpart 14-OMC (MOP receptor [2]; rat brain membranes): about 5 times; Times more potent than 14-OMC, PPQ (mice [4]; s.c.): 72 times; Times more potent than analogue 3, PPQ (mice [4]; s.c.): ~37 times; Times more active than oxycodone (antinociceptive potency) (mice [4]; s.c.): up to 165 times; Times more potent than 14-OMC, hot-plate (mice [6]): 11 times; Times more potent than analogue 3, hot-plate (mice [6]): ca. 3 times; Times less potent than analogue 5, tail-flick (mice [7]): 3 times; Times more potent than 14-OMC, tail-flick (mice [7]): 7 times; Times more potent than analogue 3, tail-flick (mice [7]): ~2 times |
